# Assay results published in PubChem BioAssay (NCI).
#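 In this assay, cells in 96-well plates receive the compound at five concentrations for 48 hours. Endpoints are linearly interpolated between the surrounding concentrations. The concentration for full growth arrest is given as TGI.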
# What was measured:
# Assay in all cases: DTP human tumour cell line panel, 48 h
# SF-539 CNS = system: SF-539 CNS
# MOLT-4 leukemia = system: MOLT-4 leukemia
# MCF7 breast = system: MCF7 breast
# UACC-257 melanoma = system: UACC-257 melanoma
# NCI-H226 lung = system: NCI-H226 lung
# OVCAR-3 ovarian = system: OVCAR-3 ovarian
# M14 melanoma = system: M14 melanoma
# BT-549 breast = system: BT-549 breast
# T-47D breast = system: T-47D breast
# MDA-MB-231 breast = system: MDA-MB-231 breast
# CCRF-CEM leukemia = system: CCRF-CEM leukemia
# NCI-H460 lung = system: NCI-H460 lung
# SF-295 CNS = system: SF-295 CNS
# COLO 205 colon = system: COLO 205 colon
# NCI/ADR-RES ovarian = system: NCI/ADR-RES ovarian
# HL-60(TB) leukemia = system: HL-60(TB) leukemia
# RPMI-8226 leukemia = system: RPMI-8226 leukemia
# KM12 colon = system: KM12 colon
# HOP-62 NSCLC = system: HOP-62 NSCLC
# HCT-116 colon = system: HCT-116 colon
# HS 578T breast = system: HS 578T breast
# MALME-3M melanoma = system: MALME-3M melanoma
# U251 CNS = system: U251 CNS
# HOP-92 NSCLC = system: HOP-92 NSCLC
# K-562 leukemia = system: K-562 leukemia
# OVCAR-5 ovarian = system: OVCAR-5 ovarian
# A498 renal = system: A498 renal
# TK-10 renal = system: TK-10 renal
# MDA-N = system: MDA-N
# ACHN renal = system: ACHN renal
# OVCAR-4 ovarian = system: OVCAR-4 ovarian
# SR leukemia = system: SR leukemia
# SNB-19 CNS = system: SNB-19 CNS
# SK-MEL-28 melanoma = system: SK-MEL-28 melanoma
# RXF 393 renal = system: RXF 393 renal
# HT29 colon = system: HT29 colon
# EKVX NSCLC = system: EKVX NSCLC
# NCI-H23 lung = system: NCI-H23 lung
# SW-620 colon = system: SW-620 colon
# SK-MEL-5 melanoma = system: SK-MEL-5 melanoma
# SF-268 CNS = system: SF-268 CNS
# IGROV1 ovarian = system: IGROV1 ovarian
# UO-31 renal = system: UO-31 renal
# UACC-62 melanoma = system: UACC-62 melanoma
# OVCAR-8 ovarian = system: OVCAR-8 ovarian
# HCT-15 colon = system: HCT-15 colon
# SN12C renal = system: SN12C renal
# A549 NSCLC = system: A549 NSCLC
# 786-0 renal = system: 786-0 renal
# MDA-MB-435 = system: MDA-MB-435
# HCC-2998 colon = system: HCC-2998 colon
# PC-3 prostate = system: PC-3 prostate
# DU-145 prostate = system: DU-145 prostate
# CAKI-1 renal = system: CAKI-1 renal
# SNB-75 CNS = system: SNB-75 CNS
# SK-MEL-2 melanoma = system: SK-MEL-2 melanoma
# SK-OV-3 ovarian = system: SK-OV-3 ovarian
# NCI-H522 lung = system: NCI-H522 lung
# LOX IMVI melanoma = system: LOX IMVI melanoma
smiles,measurement,setting,value
C(=N\Nc1nnc(-c2nnc(N/N=C/c3ccccc3)o2)o1)/c1ccccc1,TGI,SF-539 CNS,> 10 µM
same,TGI,MOLT-4 leukemia,> 10 µM
same,TGI,MCF7 breast,> 10 µM
same,TGI,UACC-257 melanoma,> 10 µM
same,TGI,NCI-H226 lung,> 10 µM
same,TGI,OVCAR-3 ovarian,> 10 µM
same,TGI,M14 melanoma,> 10 µM
same,TGI,BT-549 breast,> 10 µM
same,TGI,T-47D breast,> 10 µM
same,TGI,MDA-MB-231 breast,> 10 µM
same,TGI,CCRF-CEM leukemia,> 10 µM
same,TGI,NCI-H460 lung,> 10 µM
same,TGI,SF-295 CNS,> 10 µM
same,TGI,COLO 205 colon,> 10 µM
same,TGI,NCI/ADR-RES ovarian,> 10 µM
same,TGI,HL-60(TB) leukemia,> 10 µM
same,TGI,RPMI-8226 leukemia,> 10 µM
same,TGI,KM12 colon,> 10 µM
same,TGI,HOP-62 NSCLC,> 10 µM
same,TGI,HCT-116 colon,> 10 µM
same,TGI,HS 578T breast,> 10 µM
same,TGI,MALME-3M melanoma,> 10 µM
same,TGI,U251 CNS,> 10 µM
same,TGI,HOP-92 NSCLC,> 10 µM
same,TGI,K-562 leukemia,> 10 µM
same,TGI,OVCAR-5 ovarian,> 10 µM
same,TGI,A498 renal,> 10 µM
same,TGI,TK-10 renal,> 10 µM
same,TGI,MDA-N,> 10 µM
same,TGI,ACHN renal,> 10 µM
same,TGI,OVCAR-4 ovarian,> 10 µM
same,TGI,SR leukemia,> 10 µM
same,TGI,SNB-19 CNS,> 10 µM
same,TGI,SK-MEL-28 melanoma,> 10 µM
same,TGI,RXF 393 renal,> 10 µM
same,TGI,HT29 colon,> 10 µM
same,TGI,EKVX NSCLC,> 10 µM
same,TGI,NCI-H23 lung,> 10 µM
same,TGI,SW-620 colon,> 10 µM
same,TGI,SK-MEL-5 melanoma,> 10 µM
same,TGI,SF-268 CNS,> 10 µM
same,TGI,IGROV1 ovarian,> 10 µM
same,TGI,UO-31 renal,> 10 µM
same,TGI,UACC-62 melanoma,> 10 µM
same,TGI,OVCAR-8 ovarian,> 10 µM
same,TGI,HCT-15 colon,> 10 µM
same,TGI,SN12C renal,> 10 µM
same,TGI,A549 NSCLC,> 10 µM
same,TGI,786-0 renal,> 10 µM
same,TGI,MDA-MB-435,> 10 µM
same,TGI,HCC-2998 colon,> 10 µM
same,TGI,PC-3 prostate,> 10 µM
same,TGI,DU-145 prostate,> 10 µM
same,TGI,CAKI-1 renal,> 10 µM
COc1ccc(C2=C(N)c3cc(OC)ccc3C2=O)cc1,TGI,SF-539 CNS,> 100 µM
same,TGI,MOLT-4 leukemia,> 100 µM
same,TGI,MCF7 breast,> 100 µM
same,TGI,UACC-257 melanoma,> 100 µM
same,TGI,NCI-H226 lung,> 100 µM
same,TGI,OVCAR-3 ovarian,> 100 µM
same,TGI,SNB-75 CNS,> 100 µM
same,TGI,M14 melanoma,> 100 µM
same,TGI,BT-549 breast,> 100 µM
same,TGI,T-47D breast,> 100 µM
same,TGI,MDA-MB-231 breast,> 100 µM
same,TGI,NCI-H460 lung,> 100 µM
same,TGI,SF-295 CNS,> 100 µM
same,TGI,COLO 205 colon,> 100 µM
same,TGI,NCI/ADR-RES ovarian,> 100 µM
same,TGI,HL-60(TB) leukemia,> 100 µM
same,TGI,RPMI-8226 leukemia,> 100 µM
same,TGI,KM12 colon,> 100 µM
same,TGI,HOP-62 NSCLC,> 100 µM
same,TGI,HCT-116 colon,> 100 µM
same,TGI,HS 578T breast,69.9 µM
same,TGI,MALME-3M melanoma,> 100 µM
same,TGI,U251 CNS,> 100 µM
same,TGI,HOP-92 NSCLC,> 100 µM
same,TGI,OVCAR-5 ovarian,> 100 µM
same,TGI,A498 renal,> 100 µM
same,TGI,MDA-N,> 100 µM
same,TGI,ACHN renal,> 100 µM
same,TGI,SK-MEL-2 melanoma,> 100 µM
same,TGI,OVCAR-4 ovarian,> 100 µM
same,TGI,SR leukemia,> 100 µM
same,TGI,SNB-19 CNS,> 100 µM
same,TGI,SK-MEL-28 melanoma,> 100 µM
same,TGI,HT29 colon,> 100 µM
same,TGI,EKVX NSCLC,> 100 µM
same,TGI,NCI-H23 lung,> 100 µM
same,TGI,SK-OV-3 ovarian,> 100 µM
same,TGI,SW-620 colon,> 100 µM
same,TGI,SK-MEL-5 melanoma,> 100 µM
same,TGI,SF-268 CNS,> 100 µM
same,TGI,NCI-H522 lung,> 100 µM
same,TGI,IGROV1 ovarian,> 100 µM
same,TGI,UACC-62 melanoma,> 100 µM
same,TGI,OVCAR-8 ovarian,> 100 µM
same,TGI,HCT-15 colon,> 100 µM
same,TGI,SN12C renal,> 100 µM
same,TGI,A549 NSCLC,> 100 µM
same,TGI,786-0 renal,> 100 µM
same,TGI,LOX IMVI melanoma,> 100 µM
same,TGI,MDA-MB-435,> 100 µM
same,TGI,HCC-2998 colon,> 100 µM
same,TGI,PC-3 prostate,> 100 µM
same,TGI,DU-145 prostate,> 100 µM
same,TGI,CAKI-1 renal,> 100 µM
